Source: patent US20130296346A1, “DIPHENYL-AMINE DERIVATIVES: USES, PROCESS OF SYNTHESIS AND PHARMACEUTICAL COMPOSITIONS” (Faes Farma, S.A., priority 2010, published 2013)
Structures can show the parent of a compound that is named as a salt.

What was measured:
[1] = tested on: colorectal cancer cells from patients with Kras mutation; test: Mutated Kras colon cancer orthotopic animal model; format: in vivo, mice; conditions: compared with vehicle control, FIG. 4A
Procedure: Using an animal model based on colorectal cancer cells from patients with Kras mutation, implanted on mice in the colon area (Yao, M. Cyclooxygenase-2 selective inhibition with NS-398 suppresses proliferation and invasiveness and delays liver metastasis in colorectal cancer. Br. J. Cancer, 2004 Feb. 9; 90(3):712-9), the effects of Compound 3 were tested.

Malm-3M = test: In vitro cytotoxicity, SRB method; format: cell-based; conditions: Malm-3M melanoma, 72 hours
Procedure: (§1) SRB method was followed (Wieland, V., et al. Sulforhodamine B Assay and Chemosensitivity. Chemosensitivity, volume 1, In Vitro Assays. Methods in Molecular Medicine. Edited by Rosalyn D. Blumenthal. Humana Press, Totowa, N.J., 2005).
(§2) Cells were seeded in microplates of 96 wells. In each well, according to the cell type, specific number of cells were seeded in 200 microliters. In these conditions, cells were cultured for 3 days, with the aim of reaching their exponential phase of growing to assay the product cytotoxicity. The product concentrations were prepared just the day of treatments, after thawing the stock solutions (10 mM). After harvesting the microplate with the seeded cells for 3 days, the culture medium was discarded and replaced by 150 μl of fresh medium in each well. This was followed by the addition of 50 μl of the corresponding product dilution so as the final concentration in the final volume of 200 microliters in each well was the one scheduled. The products, at the assayed concentrations, were in contact with the cell growing monolayer for 72 hours and incubated at 37° C., 5% CO2. Finally, cells were growth arrested adding […] of cold TCA (Trichloroacetic acid) 50%, (final concentration of 10% in the well). Microplate was then maintained at 4° C. for over 60 min to fix cellular proteins till initiation of washing and staining with SRB.
(§3) Cell viability (%)=(Cell population of the treated well/Maximum cell population of the Standard curve)×100.
(§4) Mean viability values for each concentration were calculated from the values obtained for each well in which that concentration was assayed.

HCT116 = test: In vitro cytotoxicity, SRB method; format: cell-based; conditions: Homo sapiens, HCT-116, HCT116 colon cancer, 72 hours
Procedure: as §1, §2, §3, §4

SF268 = test: In vitro cytotoxicity, SRB method; format: cell-based; conditions: Homo sapiens, SF-268, SF268 glioblastoma, 72 hours
Procedure: as §1, §2, §3, §4

NCI-H460 = test: In vitro cytotoxicity, SRB method; format: cell-based; conditions: Homo sapiens, NCI-H460 lung, 72 hours
Procedure: as §1, §2, §3, §4

HepG2 = test: In vitro cytotoxicity, SRB method; format: cell-based; conditions: Homo sapiens, HepG2 hepatoma, 72 hours
Procedure: as §1, §2, §3, §4

B16-F1 = test: In vitro cytotoxicity, SRB method; format: cell-based; conditions: Mus musculus, B16-F1 melanoma, 72 hours
Procedure: as §1, §2, §3, §4

SW260 = test: In vitro cytotoxicity, SRB method; format: cell-based; conditions: SW260 colon cancer, 72 hours
Procedure: as §1, §2, §3, §4

IL6r = test: IL-6R transfectant, STAT3 reporter gene (secreted phosphatase); format: cell-based
Excerpt: (§5) The secreted phosphatase sPase was used as reporter for its ability to process the luminiscent or colorimetric substrates from the culture based in the hydrolysis of substrates chemically similar to nitrophenol phosphate. Five generation of transfectants were developed as described: • 1. IL-4R. Chains of Type II IL-4-r, which is the common one within non-haematopoietic cells were transfected, as well as STAT6 which the key molecule in the nuclear signalling route by IL-4-r, and finally a reporter gene to measure the response to STAT6 was introduced. Endogenously, cells had Janus Associated Kinase 1 (JAK1) which was previously known to be associated with STAT6 via p62/aPKC. • 2. IL-6R. Chains of IL-6R were transfected and a reporter gene able to measure the response to STAT3 was introduced. As it is well known, STAT3 is a transductional molecule and a nuclear factor physiologically produced in the standard responses IL-6/IL-6R. • 3. TNF-R. In this case, a reporter gene able to measure the response to NF-kB was introduced, as this is the transductional molecule and the nuclear factor physiologically produced in response to TNF-alpha. […] LPS-Receptor complex represented by TLR4/MD2/CD14. Reporter genes with elements of response to NFkB were used as in the previous case, but the selectivity was achieved by the co-transfection of components of the LPS-R complex. The LPS is captured from the serum through the union to one plasma protein known as LBP, which transfers the LPS to the membrane protein CD14. The LBP inclusion accounts for an increase of 1000-fold the sensitivity versus media or cultures LBP-frees. The molecule CD14 is not an LPS-receptor but a module of the receptor complex which captures LBP, allowing the transference of LPS in the cellular surface to MD2. CD14 has not a cytoplasmic tail and it is not able to be a signal transducer but it substantially increases the sensitivity of the system. In a similar way, MD2 is not a signal transducer but the combination of CD14 and MD2 allows the increase of the sensitivity by 10000-fold. • 5. IL-1R. Reporter genes with elements of response to NFkB were used as in the previous case, but the selectivity was achieved by the expression of components belonging to the receptor complex IL-1R. IL-1R belongs to a receptors superfamily which uses TIR transduction domains (Toll-like IL-1R). It is known that the IL-1R route activates mitogen-activated protein kinases (MAPK) of JNK type which in turn generate nuclear factors transcriptionally active as AP-1. The reporter gene includes NFkB and AP-1 sites chained in order to simulate the physiological situation.

[2] = Cytotoxicity for human non-tumoral cells, XTT; format: cell-based; conditions: HUVEC cells (primary, from human cords)
Procedure: (§6) The cytotoxicity of the compounds for human non-tumoral cells was studied in fibroblasts, HUVEC cells and resting PBLs (Peripheral Blood lymphocytes).
HUVEC cells were obtained by treating human cords with collagenase type I, […] in Hank's medium incubating 20 minutes at 37° C. Cells were collected afterwards and cultivated in medium M199 with supplements of 20% FBS, 1% P/S and 25 mg/500 ml of medium ECGF, Cells were grown on a 0.2% gelatin matrix.
(§7) Distinct amounts of exponentially growing cells were seeded in 96-well flat-bottomed microtiter plates in a final volume of 100 μl were seeded in 96-well flat-bottomed microtiter plates, and incubated at 37° C. in a humidified atmosphere of 5% CO2/95% air for 24 h to allow the cells attach to the plates. Then, cells were incubated with different concentrations of the assayed compound at 37° C. under the 5% CO2/95% air atmosphere for 72 h. Cell proliferation was quantified using the XTT cell proliferation kit (Roche Molecular Biochemicals, Mannheim, Germany) following the manufacturer's instructions. Briefly, a freshly prepared mixture solution (50 μl) of XTT labelling reagent and PMS (N-methyldibenzopyrazine methyl sulfate) electron coupling reagent was added to each well. The resulting mixtures were further incubated for 4 h in a humidified atmosphere (37° C., 5% CO2), and the absorbance of the formazan product generated was measured with a microtiter plate reader at a test wavelength of 490 nm and a reference wavelength of 655 nm. The IC50 (50% inhibitory concentration) was then calculated as the drug concentration causing a 50% inhibition of cell proliferation. Data are shown as mean values of four independent experiments each performed in triplicate.

[3] = Cytotoxicity for human non-tumoral cells, XTT; format: cell-based; conditions: Fibroblasts
Procedure: as §6, §7

[4] = tested on: haematological cancer cell lines; test: Apoptosis induction in haematological cancer cell lines; format: cell-based
IL4r = test: IL-4R transfectant, STAT6 reporter gene (secreted phosphatase); format: cell-based
Excerpt: as §5

TNFr = test: TNF-R transfectant, NF-kB reporter gene (secreted phosphatase); format: cell-based
Excerpt: as §5

resting human PBLs = test: Apoptosis of resting human PBLs; format: cell-based
Procedure: To isolate normal peripheral blood lymphocytes (PBLs), mononuclear cells were obtained from fresh human peripheral blood from healthy volunteers by centrifugation on Ficoll-Hypaque density gradients, washed with phosphate-buffered saline (PBS), and resuspended in RPMI-1640 medium containing 10% (v/v) heat-inactivated FBS, 2 mM L-glutamine, 100 U/ml penicillin, and 100 μg/ml streptomycin as described (Cabaner et al. Br. J. Pharmacol 127:813-825.1999). Monocytes were depleted by culture dish adherence after overnight incubation. Nonadherent cells (lymphocytes) were washed with PBS and collected. PBL preparations were typically 70-75% CD3^+, 24-29% CD 19^+, and less than 0.4% CD 14^+.

TNF-α = test: Murine endotoxemia (LPS i.p.), blood serum TNF-α; format: in vivo, mice; conditions: orally 100 mg/kg; 90 min after LPS 1 mg/kg i.p.
Procedure: MATERIAL AND METHODS: Male CD1 mice, weighing between 30 and 35 g and housed under controlled standard conditions, were used. These animal fasted (for 14-16 hours; 12 per group; 6 per cage≅500 cm^2), with a nutritional solution made of Saccharose (8%) and NaCl (0.2%), ad libitum. Oral test treatments were given in suspensions (vehicle: Tween 80 0.1%—NaCl 0.9%), in a 10 ml/kg volume ratio. One hour later, murine endotoxemia was induced by intraperitoneal injection of Lipopolysaccharides from Escherichia coli serotype 055:B5 (Sigma L-2880), at 1 mg/kg dose and in a 10 ml/kg volume ratio, dissolved in sterile saline. Ninety minutes after LPS injection (i.p.), under Isoflurane anaesthesia, 0.5-0.8 ml of blood was extracted by cardiac punction; the blood sample was centrifuged (6000 rpm; 10 minutes; 4° C.) and 2 serum samples were taken and kept frozen at −70° C. until serum TNF-α concentrations were measured (EIA: Mouse TNF/TNF SF1A Quantikine from R&D Systems).

Inhibition of IL6r (IL6r) | melting point [°C] | Inhibition of IL4r (IL4r) | Inhibition of TNFr (TNFr) | Structure (SMILES) | tumour volume of human colorectal cancer [1] | IC50 (Malm-3M) [µM] | IC50 (HCT116) [µM] | IC50 (SF268) [µM] | IC50 (NCI-H460) [µM] | IC50 (HepG2) [µM] | IC50 (B16-F1) [µM] | IC50 (SW260) [µM] | IC50 at 72 h [2] [µM] | IC50 at 72 h [3] [µM] | concentration inducing apoptosis in haematological cancer cell lines [4] | % Apoptosis PBLs (resting human PBLs; 10^−4 M) [%] | % Apoptosis PBLs (resting human PBLs; 10^−5 M) [%] | effect on PBLs (resting human PBLs; even at 10^−4 M) | reduction of blood serum levels of TNF-α in relation to vehicle group (TNF-α) [%]
– | – | – | – | O=c1[nH]cc(F)c(=O)[nH]1 [Compound 5-FU, 5-F uracil, reference compound] | not active in the tested experimental conditions | – | – | – | – | – | – | – | – | – | – | – | – | – | –
Inhibition of IL6r total | 161 to 161.6 | Inhibition of IL4r total | Inhibition of TNFr total | C(CCCNCc1cccs1)=C(c1ccccc1)c1ccccc1.Cl [Compound 6, (5,5-diphenyl-pent-4-enyl)-thiophen-2-ylmethyl-amine hydrochloride] | – | 13 | 8.1 | 29 | 17 | 5 to 50 | 16 | 13 | 27 | 24 | ~10^−6 M | 7.2 | 4.1 | hardly affect PBLs | –
Inhibition of IL6r total | 139 to 141.3 | Inhibition of IL4r total | Inhibition of TNFr total | C(CCCNCc1ccco1)=C(c1ccccc1)c1ccccc1.Cl [Compound 8, (5,5-diphenyl-pent-4-enyl)furan-2-ylmethylamine hydrochloride] | – | 16 | 5 to 50 | 5 to 50 | 5 to 50 | 5 to 50 | 14 | 5 to 50 | – | – | – | – | – | – | 37.7
Inhibition of IL6r total | 251 to 253.8 | Inhibition of IL4r total | Inhibition of TNFr total | C(CCCNCc1nc2ccccc2[nH]1)=C(c1ccccc1)c1ccccc1.Cl [Compound 11, (1H-benzoimidazol-2-ylmethyl)-(5,5-diphenyl-pent-4-enyl)amine hydrochloride] | – | – | – | – | – | – | – | – | – | – | – | – | – | – | 35.42
– | – | – | – | C(CCCCNc1ncnc2[nH]ncc12)=C(c1ccccc1)c1ccccc1 [Compound 40, (6,6-Diphenyl-hex-5-enyl)-(1H-pyrazolo[3,4-d]pyrimidin-4-yl)amine] | – | 30 | 5 to 50 | 33 | 8.1 | 5 to 50 | 9 | 50 | 36 | – | – | – | – | – | –
– | – | – | – | C(CCCNc1ncnc2[nH]ncc12)=C(c1ccccc1)c1ccccc1 [Compound 41, (5,5-Diphenyl-pent-4-enyl)-(1H-pyrazolo[3,4-d]pyrimidin-4-yl)amine] | – | 44 | 5 to 50 | 17 | 2 | 5 to 50 | 6 | 5 to 50 | – | – | – | – | – | – | –
– | – | – | – | CC(C)n1ncc2c(NCCCCC=C(c3ccccc3)c3ccccc3)ncnc21 [Compound 44, (6,6-Diphenyl-hex-5-enyl)-(1-isopropyl-1H-pyrazolo[3,4-d]pyrimidin-4-yl)amine hydrochloric salt] | – | 40 | 5 to 50 | 31 | 9.4 | 5 to 50 | 8 | 50 | – | – | – | – | – | – | –
– | – | – | – | COc1cccc2c1C(=O)c1c(O)c3c(c(O)c1C2=O)C[C@@](O)(C(=O)CO)C[C@@H]3O[C@H]1C[C@H](N)[C@H](O)[C@H](C)O1 [Doxorubicin, reference compound] | – | – | – | – | – | – | – | – | 0.23 | – | – | 21.7 | 13.2 | – | –
– | – | – | – | CC(=O)O[C@H]1C(=O)[C@@]2(C)[C@H]([C@H](OC(=O)c3ccccc3)[C@]3(O)C[C@H](OC(=O)[C@H](O)[C@@H](NC(=O)c4ccccc4)c4ccccc4)C(C)=C1C3(C)C)[C@]1(OC(C)=O)CO[C@@H]1C[C@@H]2O [Taxol, reference compound] | – | – | – | – | – | – | – | – | 0.00047 | 0.00075 | – | – | – | – | –
